From the supplement of paper PMC10307832 come the findings set out here.

Common to all, as to test: relative viability (nuclei count vs DMSO), 5 days (fraction); higher = more cells survive
Compound in assay [1]: C1CN(CCN1)C2=CC=C(C=C2)C3=CN4C(=C(C=N4)C5=CC=NC6=CC=CC=C56)N=C3 [DM3189]
An outline of the steps: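 A plate was accepted only when its control CV was below 25% and the cells had doubled at least once. Viability is defined from nuclear counts as treated wells divided by vehicle wells, with the median taken across plates. That median covers lung cancer cell lines grown in 1536-well plates, dosed by pinning at five √10-spaced library-drug concentrations, and counted in MetaXpress from 4× Hoechst images after 5 days.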

Compound in assay [2]: C1CN(CCN1)C2=CC=C(C=C2)C3=CN4C(=C(C=N4)C5=CC=NC6=CC=CC=C56)N=C3 [DM3189] + CS(=O)(=O)CCNCc1ccc(-c2ccc3ncnc(Nc4ccc(OCc5cccc(F)c5)c(Cl)c4)c3c2)o1 [Lapatinib] (partner 2 µM)
An outline of the steps:
(§1)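 Lung cancer cell lines, seeded in 1536-well plates, were treated the following day by pin tool with a single drug or with five library-drug doses (not always all listed) in √10 steps on top of a fixed anchor-drug dose. Cells were fixed and nuclei stained in one step after 5 days, and nuclei were counted. Relative viability is the nuclei count for treated wells divided by that for vehicle wells, reported as medians of duplicate plates.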

Compound in assay [3]: C1CN(CCN1)C2=CC=C(C=C2)C3=CN4C(=C(C=N4)C5=CC=NC6=CC=CC=C56)N=C3 [DM3189] + NC(=O)Nc1cc(-c2cccc(F)c2)sc1C(=O)N[C@H]1CCCNC1 [AZD7762] (partner 0.2 µM)
An outline of the steps: as §1

Compound in assay [4]: C1CN(CCN1)C2=CC=C(C=C2)C3=CN4C(=C(C=N4)C5=CC=NC6=CC=CC=C56)N=C3 [DM3189] + O=C(CCCCCCC(=O)Nc1ccccc1)NO [Vorinostat] (partner 1 µM)
An outline of the steps: as §1

Compound in assay [5]: C1CN(CCN1)C2=CC=C(C=C2)C3=CN4C(=C(C=N4)C5=CC=NC6=CC=CC=C56)N=C3 [DM3189] + CC(=O)Nc1cccc(-n2c(=O)n(C3CC3)c(=O)c3c(Nc4ccc(I)cc4F)n(C)c(=O)c(C)c32)c1 [Trametinib] (partner 0.02 µM)
An outline of the steps: as §1

As for NCI-H1355, the relative viability in assay [1] (0.08 µM) was found to be 1.01; in assay [1] (0.253 µM), 0.968; in assay [1] (0.8 µM), 0.842; in assay [1] (2.53 µM), 0.951; in assay [2] (first compound 0.08 µM) it was 1.07; in assay [2] (first compound 0.253 µM), 0.972. The relative viability in assay [2] (first compound 0.8 µM) is 0.819; in assay [2] (first compound 2.53 µM), 0.919; in assay [3] (first compound 0.08 µM), 0.687; in assay [3] (first compound 0.253 µM), 0.813; in assay [3] (first compound 0.8 µM), 0.585; in assay [3] (first compound 2.53 µM), 0.648. Moreover, the relative viability in assay [4] (first compound 0.08 µM) came out at 0.64; in assay [4] (first compound 0.253 µM), 0.636; in assay [4] (first compound 0.8 µM), 0.504; in assay [4] (first compound 2.53 µM) it was 0.565; in assay [5] (first compound 0.08 µM), 0.408; in assay [5] (first compound 0.253 µM), 0.429. Moreover, the relative viability in assay [5] (first compound 0.8 µM) is 0.33; in assay [5] (first compound 2.53 µM) it was 0.421.

As to NCI-H520, the relative viability amounted to 1.05 in assay [1] (0.08 µM); 0.79 in assay [1] (0.253 µM); 0.844 in assay [1] (0.8 µM); 0.683 in assay [1] (2.53 µM); 0.902 in assay [2] (first compound 0.08 µM); 0.679 in assay [2] (first compound 0.253 µM). In addition, the relative viability was determined as 0.644 in assay [2] (first compound 0.8 µM); 0.42 in assay [2] (first compound 2.53 µM); 0.712 in assay [4] (first compound 0.08 µM); 0.633 in assay [4] (first compound 0.253 µM); 0.57 in assay [4] (first compound 0.8 µM); 0.292 in assay [4] (first compound 2.53 µM). Moreover, the relative viability was 0.672 in assay [5] (first compound 0.08 µM), 0.413 in assay [5] (first compound 0.253 µM), 0.43 in assay [5] (first compound 0.8 µM) and 0.321 in assay [5] (first compound 2.53 µM).

On to NCI-H2009, for which the relative viability in assay [1] (0.08 µM) worked out at 1.1; in assay [1] (0.253 µM), 1.03; in assay [1] (0.8 µM) it was 0.893; in assay [1] (2.53 µM), 1.05; in assay [2] (first compound 0.08 µM), 1.13; in assay [2] (first compound 0.253 µM), 0.888. Also, the relative viability turned out to be 0.684 in assay [2] (first compound 0.8 µM); 0.916 in assay [2] (first compound 2.53 µM); 0.705 in assay [4] (first compound 0.08 µM); 0.647 in assay [4] (first compound 0.253 µM); 0.733 in assay [4] (first compound 0.8 µM); 0.888 in assay [4] (first compound 2.53 µM). For the same cell line, the relative viability in assay [5] (first compound 0.08 µM) was determined as 0.276; in assay [5] (first compound 0.253 µM), 0.268; in assay [5] (first compound 0.8 µM), 0.263; in assay [5] (first compound 2.53 µM), 0.23.

For the cell line ChaGo-K-1, the relative viability in assay [1] (0.08 µM) was found to be 1.01; in assay [1] (0.253 µM), 0.997; in assay [1] (0.8 µM) it was 0.971; in assay [1] (2.53 µM), 1; in assay [3] (first compound 0.08 µM) it was 0.919; in assay [3] (first compound 0.253 µM), 0.857. Moreover, the relative viability in assay [3] (first compound 0.8 µM) was 0.605; in assay [3] (first compound 2.53 µM) it was 0.83; in assay [4] (first compound 0.08 µM) it was 0.872; in assay [4] (first compound 0.253 µM) it was 0.771; in assay [4] (first compound 0.8 µM) it was 0.703; in assay [4] (first compound 2.53 µM), 0.746. The relative viability was determined as 0.937 in assay [5] (first compound 0.08 µM), 0.876 in assay [5] (first compound 0.253 µM), 0.919 in assay [5] (first compound 0.8 µM) and 0.936 in assay [5] (first compound 2.53 µM).

For the cell line HCC-15, the relative viability in assay [1] (0.08 µM) is 1.07; in assay [1] (0.253 µM), 0.923; in assay [1] (0.8 µM) it was 0.91; in assay [1] (2.53 µM), 0.942; in assay [2] (first compound 0.08 µM) it was 0.983; in assay [2] (first compound 0.253 µM), 0.843. Moreover, the relative viability was 0.81 in assay [2] (first compound 0.8 µM); 0.816 in assay [2] (first compound 2.53 µM); 1.19 in assay [3] (first compound 0.08 µM); 1.14 in assay [3] (first compound 0.253 µM); 1.08 in assay [3] (first compound 0.8 µM); 1.24 in assay [3] (first compound 2.53 µM). Moreover, the relative viability worked out at 1.03 in assay [4] (first compound 0.08 µM); 0.803 in assay [4] (first compound 0.253 µM); 0.732 in assay [4] (first compound 0.8 µM); 0.815 in assay [4] (first compound 2.53 µM); 0.447 in assay [5] (first compound 0.08 µM); 0.431 in assay [5] (first compound 0.253 µM). Besides, the relative viability was 0.406 in assay [5] (first compound 0.8 µM) and 0.414 in assay [5] (first compound 2.53 µM).

Turning to NCI-H2347, the relative viability was found to be 1.2 in assay [1] (0.08 µM); 1.03 in assay [1] (0.253 µM); 0.945 in assay [1] (0.8 µM); 1.02 in assay [1] (2.53 µM); 1.09 in assay [2] (first compound 0.08 µM); 0.866 in assay [2] (first compound 0.253 µM). For the same cell line, the relative viability in assay [2] (first compound 0.8 µM) amounted to 0.703; in assay [2] (first compound 2.53 µM) it was 0.97; in assay [3] (first compound 0.08 µM) it was 0.726; in assay [3] (first compound 0.253 µM) it was 0.779; in assay [3] (first compound 0.8 µM), 0.723; in assay [3] (first compound 2.53 µM), 0.733. The relative viability in assay [4] (first compound 0.08 µM) came to 0.554; in assay [4] (first compound 0.253 µM) it was 0.626; in assay [4] (first compound 0.8 µM), 0.61; in assay [4] (first compound 2.53 µM) it was 0.658; in assay [5] (first compound 0.08 µM) it was 0.28; in assay [5] (first compound 0.253 µM), 0.262. For the same cell line, the relative viability in assay [5] (first compound 0.8 µM) was determined as 0.276; in assay [5] (first compound 2.53 µM), 0.31.

In the case of NCI-H1395, the relative viability was determined as 1.03 in assay [1] (0.08 µM); 0.834 in assay [1] (0.253 µM); 0.697 in assay [1] (0.8 µM); 0.945 in assay [1] (2.53 µM); 1.1 in assay [2] (first compound 0.08 µM); 0.92 in assay [2] (first compound 0.253 µM). For the same cell line, the relative viability in assay [2] (first compound 0.8 µM) is 0.724; in assay [2] (first compound 2.53 µM), 0.896; in assay [3] (first compound 0.08 µM) it was 0.385; in assay [3] (first compound 0.253 µM), 0.396; in assay [3] (first compound 2.53 µM), 0.39; in assay [4] (first compound 0.08 µM) it was 1.08. Besides, the relative viability in assay [4] (first compound 0.253 µM) is 0.616; in assay [4] (first compound 2.53 µM), 0.731; in assay [5] (first compound 0.08 µM), 0.902; in assay [5] (first compound 0.253 µM), 1.03; in assay [5] (first compound 2.53 µM), 1.01.
